How the values were obtained:
[1] = system: NMDAR; experiment: NMDA-induced whole-cell currents in cultured hippocampal neurons (voltage clamp); assay type: cell-based, rat; conditions: 10 μM NMDA
[2] = target: α1Q241L mutated GABAARs (UniProt P18507+P47870+P62813, Q268L); experiment: GABA current in N2a cells transfected with α1Q241L, β2 and γ2 subunits; assay type: cell-based; conditions: 10 μM GABA; AlloP 50 nM, MQ-221 10 μM
α1Q241L mutated GABAARs, sequence (P62813 28-455 Q268L): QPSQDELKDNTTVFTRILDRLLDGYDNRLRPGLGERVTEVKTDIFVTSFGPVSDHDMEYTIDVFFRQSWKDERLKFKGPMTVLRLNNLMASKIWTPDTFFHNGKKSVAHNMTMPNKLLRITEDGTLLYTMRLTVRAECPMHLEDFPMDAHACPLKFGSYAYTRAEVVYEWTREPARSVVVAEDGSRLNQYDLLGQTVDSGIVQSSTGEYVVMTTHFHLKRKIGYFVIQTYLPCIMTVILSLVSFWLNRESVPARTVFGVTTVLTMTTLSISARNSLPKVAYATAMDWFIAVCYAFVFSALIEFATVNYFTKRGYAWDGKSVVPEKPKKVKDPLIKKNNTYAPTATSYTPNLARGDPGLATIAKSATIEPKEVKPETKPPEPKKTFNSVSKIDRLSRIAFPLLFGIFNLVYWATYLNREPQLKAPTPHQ
α1Q241L mutated GABAARs, sequence (P47870 25-512 limits assumed): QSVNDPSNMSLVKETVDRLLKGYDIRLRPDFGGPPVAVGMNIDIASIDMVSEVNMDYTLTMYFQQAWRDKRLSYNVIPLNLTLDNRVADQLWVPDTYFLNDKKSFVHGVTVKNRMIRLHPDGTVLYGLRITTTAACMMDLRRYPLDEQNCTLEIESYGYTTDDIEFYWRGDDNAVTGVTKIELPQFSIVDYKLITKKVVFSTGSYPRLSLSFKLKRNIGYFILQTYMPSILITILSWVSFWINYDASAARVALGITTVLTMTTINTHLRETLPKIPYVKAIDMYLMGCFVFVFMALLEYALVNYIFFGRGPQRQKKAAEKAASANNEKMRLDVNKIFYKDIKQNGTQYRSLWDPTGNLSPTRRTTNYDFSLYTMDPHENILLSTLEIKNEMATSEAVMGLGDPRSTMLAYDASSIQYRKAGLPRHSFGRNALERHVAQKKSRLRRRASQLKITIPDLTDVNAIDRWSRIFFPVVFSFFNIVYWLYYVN
α1Q241L mutated GABAARs, sequence (P18507 40-475): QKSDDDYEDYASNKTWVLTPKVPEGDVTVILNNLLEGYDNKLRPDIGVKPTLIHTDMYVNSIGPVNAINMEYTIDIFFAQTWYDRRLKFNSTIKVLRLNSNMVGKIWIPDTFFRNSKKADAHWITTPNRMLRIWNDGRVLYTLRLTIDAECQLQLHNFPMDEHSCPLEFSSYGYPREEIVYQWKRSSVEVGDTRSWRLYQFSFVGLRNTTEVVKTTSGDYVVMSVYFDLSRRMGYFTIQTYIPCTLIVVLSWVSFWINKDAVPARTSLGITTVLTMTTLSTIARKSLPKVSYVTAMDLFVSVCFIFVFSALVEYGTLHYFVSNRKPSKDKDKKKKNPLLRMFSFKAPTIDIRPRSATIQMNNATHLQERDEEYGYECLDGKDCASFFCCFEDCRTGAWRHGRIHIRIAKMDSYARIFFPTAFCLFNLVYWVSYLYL

Row | Compound | Action on closed NMDAR channels (pre-application in the absence of agonist) ([1]; 2.5 μM MQ-221, 300 μM 3α5βPS) | Inhibition of NMDAR function in the presence of agonist (co-application) ([1]; 300 μM 3α5βPS) | Effect of the α1 Q241L mutation on potentiation of GABA current [2]
1 | pregnanolone sulfate [reference compound] | little effect on closed channels | strongly inhibited | –
2 | CC(=O)[C@H]1CC[C@H]2[C@@H]3CC[C@H]4C[C@H](O)CC[C@]4(C)[C@H]3CC[C@]12C [allopregnanolone, reference compound] | – | – | elimination of allopregnanolone (AlloP) potentiation
